Here are results for 15 molecules from patent US6576620B2, “Method of identifying partial adenosine A1 receptor agonists” (CV Therapeutics, Inc., priority 1999, dated 2003).

Broadly, the EC50 is the concentration needed to bring the measured effect to its halfway point. A word on the Ki: it is a dissociation constant, usually derived from enzyme kinetics or from competition with a known ligand.

The subject of test [1] is guinea pig isolated heart. Nature of the test: A-V nodal conduction time / S-H interval, isolated perfused heart. Conditions: for EC50: Cavia porcellus; for S-H interval Efficacy: Table 5, 2759 = CVT-2759. As for the experimental part:
This method evaluates the potencies of compounds to cause coronary vasodilation (A2A AdoR response) and to prolong A-V nodal conduction time (A1 AdoR response).
Rats and guinea pigs, of either sex weighing from 230 to 260 grams and 300 to 350 grams, respectively, were used in this study. Animals were anesthetized by peritoneal injection of a cocktail containing ketamine and xylazine (ketamine 100 mg, xylazine 20 mg/ml). The chest was opened and the heart quickly removed. The heart was briefly rinse in ice-cold Krebs-Henseleit solution (see below), and the aorta cannulated. The heart was then perfused at a flow rate of 10 ml/min with modified Krebs-Henseleit (K-H) solution containing NaCl 117.9, KCl 4.5, CaCl2 2.5, MgSO4 1.18, KH2PO4 1.18, pyruvate 2.0 mmol. The K-H solution (pH 7.4) was gassed continuously with 95% O2 and 5% CO2 and warmed to 35±0.50° C. The heart was electrically paced at a fixed cycle length of […] (250 beats/min) using a bipolar electrode place on the left atrium. The electrical stimuli were generated by a Grass stimulator (Model S48, W. Warwick, R.I.) and delivered through a Stimuli Isolation Unit (Model SIU5, Astro-Med, Inc., NY) as square-wave pulses of 3-msec in duration and amplitude of at least twice the threshold intensity.
A1 adenosine receptor-mediated depression of A-V nodal conduction time (negative dromotropic effect) was measured. Atrial and ventricular surface electrograms in rats and His bundle electrogram in guinea pigs, were recorded during constant atrial pacing.
The effects of compounds on coronary conductance (A2A effect) and atrioventricular conduction time or stimulus-to-His-bundle (S-H) interval (A1 effect) was then determined. Hearts were instrumented for continuous recording of coronary perfusion pressure (A2A response) and atrioventricular (A-V) conduction time or S-H interval (A1 response). In each experiment, concentration-response relationship of compounds to increase coronary conductance and to prolong A-V conduction time or S-H interval was determined. After control measurements of CPP and A-V conduction time or S-H interval were made, progressive higher concentrations of the compound studied was administered until maximal coronary vasodilation and A-V nodal conduction time or S-H interval prolongation were achieved.
Guinea pigs (Hartley) of either sex weighing 300-350 g were anaesthetized with methoxyflurane and killed by decapitation. The chest was cut open and the heart was removed quickly and rinsed in ice-cold modified Krebs-Henseleit (K-H) solution. The contents of the modified K-H solution were (in mM): NaCl 117.9, KCl 4.8, CaCl2 2.5, MgSO2 1.18, KH2PO4 1.2, Na2 EDTA 0.5, ascorbic acid 0.14, dextrose 5.5, pyruvic acid (sodium salt) 2.0, and NaHCO3 25. The K-H solution was continuously gassed with 95% oxygen and 5% CO2, and the pH was adjusted to a value of 7.4. To perfuse the heart by the Langendorff method, the transected aorta was slid onto a glass cannula and secured by a ligature. Retrograde perfusion of the aorta was initiated immediately at a constant flow of 10 ml min-′ with modified K-H solution warmed to 36.0±0.5° C. A side port in the cannula was used to connect the perfusion line to a Gould pressure transducer for measurement of coronary perfusion pressure. Coronary perfusion pressure was continuously recorded on a strip chart (Gould RS3400, Cleveland, Ohio) throughout each experiment. Coronary conductance (in ml min^−1 mmHg^−1) was calculated as the ratio of coronary flow (10 ml min^−1) to perfusion pressure (mm Hg). To facilitate the exit of fluid from the left ventricle, the leaflets of the mitral valve were trimmed with fine spring-handled scissors. When appropriate, hearts were paced at a constant rate using external electrodes. […]

In test [2] the target is T1, Adenosine A1 receptor (Cavia porcellus, UniProt P47745).
T1 construct: from tissue; host or cells: guinea pig forebrain membranes
T1 sequence (P47745 1-326): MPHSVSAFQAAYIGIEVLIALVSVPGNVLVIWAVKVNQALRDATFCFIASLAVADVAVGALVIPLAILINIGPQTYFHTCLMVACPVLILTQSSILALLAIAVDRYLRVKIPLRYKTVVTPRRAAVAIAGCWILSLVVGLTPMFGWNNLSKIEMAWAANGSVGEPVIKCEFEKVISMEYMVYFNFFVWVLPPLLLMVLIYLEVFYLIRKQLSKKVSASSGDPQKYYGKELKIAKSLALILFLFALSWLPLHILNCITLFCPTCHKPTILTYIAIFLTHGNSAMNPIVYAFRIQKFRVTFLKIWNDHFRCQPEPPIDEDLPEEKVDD
The experiment in a line: Affinity binding (Ki) of Tables 4 and 5. How it is done: The binding affinity of a compound is evaluated in a competitive binding assay.

For test [3], the system named is Adenosine A1 receptor. Nature of the test: A1-agonist stimulated [35S]GTPγS binding to G proteins. Format: biochemical. As to conditions: for GTPγS: normalized to the full agonist CPA; for GTPγS (% of CPA): Table 5. How it is done: At the end of the incubation, each suspension was filtered and the retained radioactivity determined as described above.
For orientation: GTPγS is a poorly hydrolysed GTP analogue; its binding reports G protein activation.

Test [4] relates to guinea pig isolated heart. Nature of the test: Monophasic action potential duration, isolated heart. Conditions: bolus (100 μl) of 1 mM adenosine. As for the experimental part: Signals were considered adequate if they were stable for at least 5-10 min and the amplitudes exceeded 10 mV. The data were digitized at 2 kHz by a DT-2801A digitizing board (Data Translation, Marlboro, Mass.) and were saved for analysis using the Snapshot data acquisition program (Snapshot Storage Scope, HEM Data Corp., Southfield, Mich.). The duration of the atrial and ventricular monophasic action potentials was measured from onset of depolarization to either 50 or 90% of repolarization.

Test [5] has as its system guinea pig isolated heart. As to conditions: previous study (12); cited from earlier work.
The mark [6] stands for this setting: Table 4, A-V nodal conduction time, read-out: EC50 A-V NCT.
Where [7] appears, read: Table 1, compounds of Example 2.
Where [8] appears, read: Table 5, S-H interval, read-out: EC50.

Where “and” joins values, the source holds several entries; their conditions need not be identical. Identical values can stand only once. Like-named read-outs stand apart in the source and are kept apart here. A value given as a limit tells only on which side of the number the result lay.

On to `CCCNC(=S)OC[C@H]1O[C@@H](n2cnc3c(N[C@@H]4CCOC4)ncnc32)[C@H](O)[C@@H]1O` [Compound 49 of Example 2, 2-{6-[((3R)oxolan-3-yl)amino]purin-9-yl}(4S,2R,3R,5R)-5-{[(propylamino)thioxomethoxy]methyl}oxolane-3,4-diol], for which the half-maximal effective concentration (EC50) in test [1] (setting [6]) was 1400 nM. Also, the “S-H interval Efficacy” value in test [1] was “Partial”. The Ki was determined as 900 nM in test [2] (Table 4, read-out: Ki low) and 895 nM in test [2] (Table 5, read-out: Ki). In test [3] (setting [7]), this molecule returned a GTPγS of 89%. In addition, in test [3], the “GTPγS (% of CPA)” value is reported as 89 % of CPA.
As for `O[C@@H]1[C@H](O)[C@@H](CSc2c(Cl)cccc2Cl)O[C@H]1n1cnc2c(N[C@@H]3CCOC3)ncnc21` [Compound 19 of Example 4, 2-{6-[((3R)oxolan-3-yl)amino]purin-9-yl}(4S,5S,2R,3R)-5-[(2,6-dichlorophenylthio)methyl]oxolane-3,4-diol], the “S-H interval Efficacy” value in test [1] is recorded as “Full (>2759)”. The Ki in test [2] (Table 5, read-out: Ki) amounted to 1340 nM. Further, in test [3], the “GTPγS (% of CPA)” value is 89 % of CPA.
Turning to `CNC(=O)OC[C@H]1O[C@@H](n2cnc3c(N[C@@H]4CCOC4)ncnc32)[C@H](O)[C@@H]1O` [compound 6], the 50% effective concentration (EC50) in test [1] (setting [6]) was determined as 3100 nM. The Ki in test [2] (Table 4, read-out: Ki low) is 2600 nM.
For the molecule `O[C@@H]1[C@H](O)[C@@H](CSc2cccc(F)c2)O[C@H]1n1cnc2c(N[C@@H]3CCOC3)ncnc21` [Compound 20 of Example 4, 2-{6-[((3R)oxolan-3-yl)amino]purin-9-yl}(4S,5S,2R,3R)-5-[(3-fluorophenylthio)methyl]oxolane-3,4-diol], the “S-H interval Efficacy” value in test [1] is on record as “Partial (= 2759)”. For the same molecule, the inhibition constant Ki in test [2] (Table 5, read-out: Ki) worked out at 1560 nM. Also, the “GTPγS (% of CPA)” value in test [3] is reported as 84.2 % of CPA.
Regarding `CNC(=S)OC[C@H]1O[C@@H](n2cnc3c(N[C@@H]4CCOC4)ncnc32)[C@H](O)[C@@H]1O` [Compound 45 of Example 2, 2-{6-[((3R)oxolan-3-yl)amino]purin-9-yl}(4S,2R,3R,5R)-5-{[(methylamino)thioxomethoxy]methyl}oxolane-3,4-diol], the results for the half-maximal effective concentration (EC50) in test [1] (setting [6]) and in test [1] (setting [8]) were 600 nM and 570 nM, respectively. Also, in test [1], the “S-H interval Efficacy” value is “Partial”. The Ki was 400 nM in test [2] (Table 4, read-out: Ki low) and 346 nM in test [2] (Table 5, read-out: Ki). For the same molecule, the GTPγS in test [3] (setting [7]) is listed as 77%. In test [3], the “GTPγS (% of CPA)” value was 77 % of CPA.
As for `CCCn1c(=O)c2[nH]c(C3CCCC3)nc2n(CCC)c1=O` [CPX, 8-cyclopentyl-1,3-dipropylxanthine, reference compound], the S-H interval in test [1] (50 nM CPX in continued presence of 10 μM Compound 6 of Example 2 (58±2 msec before CPX)) came to 50 ± 2 ms.
For `Nc1ncnc2c1ncn2[C@@H]1O[C@H](CO)[C@@H](O)[C@H]1O` [Adenosine], the “adenosine concentration causing second-degree AV block” value in test [1] (absence of Compound 6 of Example 2) is 6 µM. Also, the “duration of atrial monophasic action potential at 90% of repolarization” value in test [4] is 22 ± 5 ms. In addition, the “maximal increase of coronary conductance” value in test [5] is 0.15±0.02 ml min^−1 mmHg^−1.
Turning to `CCCCNC(=O)OCC1OC(n2cnc3c(N[C@@H]4CCOC4)ncnc32)C(O)C1O` (stereo partly shown) [compound 27], the Ki in test [2] (Table 5, read-out: Ki) is 9630 nM.
As for `CNC(=S)OC[C@H]1O[C@@H](n2cnc3c(N[C@@H]4CCOC4)nc(Cl)nc32)[C@H](O)[C@@H]1O` [Compound 81 of Example 2], the concentration for a half-maximal effect (EC50) in test [1] (setting [6]) was 600 nM; in test [1] (setting [8]) it was 530 nM. For the same molecule, in test [1], the “S-H interval Efficacy” value is “Partial”. Besides, the inhibition constant (Ki) in test [2] (Table 4, read-out: Ki low) was 500 nM; in test [2] (Table 5, read-out: Ki), 1110 nM. The “GTPγS (% of CPA)” value in test [3] is recorded as 84 % of CPA.
Consider `CCNC(=S)OC[C@H]1O[C@@H](n2cnc3c(N[C@@H]4CCOC4)ncnc32)[C@H](O)[C@@H]1O` [Compound 46 of Example 2, 2-{6-[((3R)oxolan-3-yl)amino]purin-9-yl}(4S,2R,3R,5R)-5-{[(ethylamino)thioxomethoxy]methyl}oxolane-3,4-diol], for which the “S-H interval Efficacy” value in test [1] is “Full (Weak)”. In addition, the Ki in test [2] (Table 5, read-out: Ki) turned out to be 1110 nM. This molecule also showed a GTPγS in test [3] (setting [7]) of 77%. Also, in test [3], the “GTPγS (% of CPA)” value is given as 77 % of CPA.
Regarding `CC(C)NC(=S)OC[C@H]1O[C@@H](n2cnc3c(N[C@@H]4CCOC4)ncnc32)[C@H](O)[C@@H]1O` [Compound 47 of Example 2, 2-{6-[((3R)oxolan-3-yl)amino]purin-9-yl}(4S,2R,3R,5R)-5-({[(methylethyl)amino]thioxomethoxy}methyl)oxolane-3,4-diol], the Ki in test [2] (Table 5, read-out: Ki) turned out to be 1370 nM.
In the case of `Cc1ccc(SC[C@H]2O[C@@H](n3cnc4c(N[C@@H]5CCOC5)ncnc43)[C@H](O)[C@@H]2O)cc1` [Compound 15 of Example 4, 2-{6-[((3R)oxolan-3-yl)amino]purin-9-yl}(4S,5S,2R,3R)-5-[(4-methylphenylthio)methyl]oxolane-3,4-diol], in test [3] (Table 3, compounds of Example 4), the GTPγS is recorded as 48%.
On to `O[C@@H]1[C@H](O)[C@@H](CSc2ccccc2F)O[C@H]1n1cnc2c(N[C@@H]3CCOC3)ncnc21` [Compound 21 of Example 4, 2-{6-[((3R)oxolan-3-yl)amino]purin-9-yl}(4S,5S,2R,3R)-5-[(2-fluorophenylthio)methyl]oxolane-3,4-diol], for which the EC50 in test [1] (setting [6]) came out at 1200 nM; in test [1] (setting [8]) it was 1260 nM. In addition, in test [1], the “S-H interval Efficacy” value is “Partial (>2759)”. Also, the Ki is 600 nM in test [2] (Table 4, read-out: Ki low); 372 nM and 221 nM in test [2] (Table 5, read-out: Ki). The “GTPγS (% of CPA)” value in test [3] is recorded as 72 % of CPA.
Take `O=C(NC1CCCC1)OC[C@H]1O[C@@H](n2cnc3c(N[C@@H]4CCOC4)nc(Cl)nc32)[C@H](O)[C@@H]1O` [Compound 69 of Example 2, [(5-{6-[((3R)oxolan-3-yl)amino]-2-chloropurin-9-yl}(3S,2R,4R,5R)-3,4-dihydroxyoxolan-2-yl)methoxy]-N-cyclopentylcarboxamide]: the “S-H interval Efficacy” value in test [1] is reported as “Partial (= 2759)”. The inhibitory constant (Ki) in test [2] (Table 5, read-out: Ki) was > 1460 nM. This molecule also returned a GTPγS in test [3] (setting [7]) of 50%. Further, the “GTPγS (% of CPA)” value in test [3] is 69 % of CPA.
For `CCCNC(=S)OC[C@H]1O[C@@H](n2cnc3c(N[C@@H]4CCOC4)nc(Cl)nc32)[C@H](O)[C@@H]1O` [Compound 83 of Example 2, 2-{6-[((3R)oxolan-3-yl)amino]-2-chloropurin-9-yl}(4S,2R,3R,5R)-5-{[(propylamino)thioxomethoxy]methyl}oxolane-3,4-diol], in test [1] (setting [8]), the half-maximal effective concentration (EC50) amounted to 610 nM. Moreover, in test [1], the “S-H interval Efficacy” value is given as “Partial”. In addition, the inhibitory constant (Ki) in test [2] (Table 5, read-out: Ki) is 443 nM. For the same molecule, the “GTPγS (% of CPA)” value in test [3] is given as 77 % of CPA.
